Test results taken from PMC2824924 (Bioorganic & medicinal chemistry, 2009).

Columns and labels:
Vero cells = assay: Cytotoxicity against Vero cells; assay type: cell-based, African monkey
[1] = system: National Cancer Institute's 60 cultured human tumor cell lines; assay: NCI 60 human tumor cell line screen; conditions: mean graph midpoint; concentration of total growth inhibition
Cryptococcus neoformans = assay: Antimicrobial assay, antifungal; conditions: compared to control drug amphotericin B
[2] = system: Plasmodium falciparum D6 clone (chloroquine-sensitive); assay: In vitro antimalarial assay; assay type: cell-based; conditions: D6, 72 h, read-out: Plasmodium falciparum D6 clone IC50
[3] = system: Plasmodium falciparum W2 clone (chloroquine-resistant); assay: In vitro antimalarial assay; assay type: cell-based; conditions: W2, 72 h, read-out: Plasmodium falciparum W2 clone IC50

Compound | Cytotoxicity Vero TC50 (Vero cells; African monkey, 48 h) | further results
C[C@@H]1CC[C@H]2[C@@H](C)C(=O)O[C@@H]3O[C@@]4(C)CC[C@@H]1[C@]32OO4 [Compound 1, Artemisinin, reference compound] | > 1,686 nM | –
C[C@H]1[C@@H](O)O[C@@H]2O[C@@]3(C)CC[C@H]4[C@H](C)CC[C@@H]1[C@@]24OO3 [Compound 2, Dihydroartemisinin, reference compound] | 1,407 nM | –
CC1=CO[C@@H]2O[C@]3(C)CC[C@H]4[C@H](C)CC[C@@H]1[C@@]24OO3 [Compound 3, Anhydrodihydroartemisinin, reference compound] | > 1,787 nM | –
C[C@H]1[C@@H](OCC(=O)CO[C@H]2O[C@@H]3O[C@@]4(C)CC[C@H]5[C@H](C)CC[C@@H]([C@H]2C)[C@@]35OO4)O[C@@H]2O[C@@]3(C)CC[C@H]4[C@H](C)CC[C@@H]1[C@@]24OO3 [Compound 4] | 257 nM | –
C[C@H]1[C@@H](OCC(O)CO[C@H]2O[C@@H]3O[C@@]4(C)CC[C@H]5[C@H](C)CC[C@@H]([C@H]2C)[C@@]35OO4)O[C@@H]2O[C@@]3(C)CC[C@H]4[C@H](C)CC[C@@H]1[C@@]24OO3 (stereo partly shown) [Compound 5] | 384 nM | –
C[C@H]1[C@@H](OCc2cc(O)cc(O[C@H]3O[C@@H]4O[C@@]5(C)CC[C@H]6[C@H](C)CC[C@@H]([C@H]3C)[C@@]46OO5)c2)O[C@@H]2O[C@@]3(C)CC[C@H]4[C@H](C)CC[C@@H]1[C@@]24OO3 [Compound 6] | > 7,075 nM | MG_MID TGI [1]: 2820 nM
C[C@H]1[C@@H](Oc2cccc(N[C@@H]3[C@H](C)O[C@@H]4O[C@@]5(C)CC[C@H]6[C@H](C)CC[C@@H]3[C@@]46OO5)c2)O[C@@H]2O[C@@]3(C)CC[C@H]4[C@H](C)CC[C@@H]1[C@@]24OO3 [Compound 7] | > 7,417 nM | In vitro antifungal activity (in words) (Cryptococcus neoformans): enhanced activity compared to the control drug, amphotericin B
C[C@H]1[C@@H](OC/C=C\CO[C@H]2O[C@@H]3O[C@@]4(C)CC[C@H]5[C@H](C)CC[C@@H]([C@H]2C)[C@@]35OO4)O[C@@H]2O[C@@]3(C)CC[C@H]4[C@H](C)CC[C@@H]1[C@@]24OO3 [Compound 8] | 709 nM | –
C=C[C@@H](CO[C@H]1O[C@@H]2O[C@@]3(C)CC[C@H]4[C@H](C)CC[C@@H]([C@H]1C)[C@@]24OO3)O[C@H]1O[C@@H]2O[C@@]3(C)CC[C@H]4[C@H](C)CC[C@@H]([C@H]1C)[C@@]24OO3 [Compound 9] | 773 nM | –
C[C@H]1[C@@H](OCC[C@H](O)CO[C@H]2O[C@@H]3O[C@@]4(C)CC[C@H]5[C@H](C)CC[C@@H]([C@H]2C)[C@@]35OO4)O[C@@H]2O[C@@]3(C)CC[C@H]4[C@H](C)CC[C@@H]1[C@@]24OO3 [Compound 10] | > 7,452 nM | –
C[C@H]1[C@@H](OC[C@@H](O)[C@@H](O)CO[C@H]2O[C@@H]3O[C@@]4(C)CC[C@H]5[C@H](C)CC[C@@H]([C@H]2C)[C@@]35OO4)O[C@@H]2O[C@@]3(C)CC[C@H]4[C@H](C)CC[C@@H]1[C@@]24OO3 [Compound 11] | > 7,270 nM | –
C[C@H]1[C@@H](O[C@@H](CO[C@H]2O[C@@H]3O[C@@]4(C)CC[C@H]5[C@H](C)CC[C@@H]([C@H]2C)[C@@]35OO4)[C@H](O)CO)O[C@@H]2O[C@@]3(C)CC[C@H]4[C@H](C)CC[C@@H]1[C@@]24OO3 [Compound 12] | 825 nM | In vitro antifungal activity (in words) (Cryptococcus neoformans): enhanced activity compared to the control drug, amphotericin B
C[C@H]1[C@@H](OC[C@@H]2O[C@@H]2CO[C@H]2O[C@@H]3O[C@@]4(C)CC[C@H]5[C@H](C)CC[C@@H]([C@H]2C)[C@@]35OO4)O[C@@H]2O[C@@]3(C)CC[C@H]4[C@H](C)CC[C@@H]1[C@@]24OO3 [Compound 13] | > 7,475 nM | –
C[C@H]1[C@@H](OCC(CO[C@H]2O[C@@H]3O[C@@]4(C)CC[C@H]5[C@H](C)CC[C@@H]([C@H]2C)[C@@]35OO4)OS(C)(=O)=O)O[C@@H]2O[C@@]3(C)CC[C@H]4[C@H](C)CC[C@@H]1[C@@]24OO3 (stereo partly shown) [Compound 14] | 6,403 nM | –
C[C@H]1[C@@H](OCC(=O)CO)O[C@@H]2O[C@@]3(C)CC[C@H]4[C@H](C)CC[C@@H]1[C@@]24OO3 [Compound 15] | > 13,355 nM | –
C[C@H]1[C@@H](OCc2cc(O)cc(O)c2)O[C@@H]2O[C@@]3(C)CC[C@H]4[C@H](C)CC[C@@H]1[C@@]24OO3 [Compound 16] | > 11,711 nM | –
C[C@H]1[C@@H](OC/C=C\CO)O[C@@H]2O[C@@]3(C)CC[C@H]4[C@H](C)CC[C@@H]1[C@@]24OO3 [Compound 17] | > 13,430 nM | In vitro antifungal activity (in words) (Cryptococcus neoformans): enhanced activity compared to the control drug, amphotericin B
C[C@H]1[C@@H](OCC[C@@H](CO[C@H]2O[C@@H]3O[C@@]4(C)CC[C@H]5[C@H](C)CC[C@@H]([C@H]2C)[C@@]35OO4)O[C@H]2O[C@@H]3O[C@@]4(C)CC[C@H]5[C@H](C)CC[C@@H]([C@H]2C)[C@@]35OO4)O[C@@H]2O[C@@]3(C)CC[C@H]4[C@H](C)CC[C@@H]1[C@@]24OO3 [Compound 18] | 5,259 nM | –
CCN(CC)CCCC(C)Nc1ccnc2cc(Cl)ccc12 (stereo not shown) [chloroquine] | – | Cytotoxicity Vero TC50 (Vero cells; Table 2, concentration toxic to 50% of the cells): > 14,881 nM; IC50 [2]: 41.6 nM; IC50 [3]: 378 nM
